# Measurements: US12030897B2, “Pyrrolo[2,1-f][1,2,4]triazine derivatives serving as selective HER2 inhibitors and application thereof” (MEDSHINE DISCOVERY INC., priority 2018, dated 2024)
# pIC50: −log10 of the molar value. “And” between values parts separate entries of the source, which are not always exact repeats. Equal values may be shown once.
# What was measured:
# [1] = test system: BT-474 cell; test: Cell proliferation inhibitory activity, Cell-Titer-Glo, BT-474; type: cell-based; details: Homo sapiens, BT-474, 72 h; 3 days incubation
# Description: Experiment object: to detect the inhibitory activity of the tested compound on cell proliferation.
# Experimental principle: the luciferase in the Cell-Titer-Glo reagent uses luciferin, oxygen and ATP as reaction substrates to produce oxyluciferin and release energy in the form of light. Since the luciferase reaction requires ATP, the total amount of light produced by the reaction is proportional to the total amount of ATP that reflects cell viability.
# Experimental Materials: • cell lines: NCI-N87 cell line (ATCC-CRL-5822); BT-474 cell line (ATCC-HTB-20) • Cell culture medium: RPMI 1640 medium (Invitrogen #22400-105; 10% serum Invitrogen #10090148; L-glutamine 1×, Gibco #25030-081; double antibody Hyclone #SV30010) • CellTiter-Glo® luminescence cell viability detection kit (Promega #G7573) • 384-well cell culture plate (Greiner #781090) • Compound plate (LABCYTE #LP-0200) • CO2 incubator (Thermo #371) • Vi-cell cell counter (Beckman Coulter) • Pipette (Eppendorf) • Pipette (Greiner) • Pipetting gun (Eppendorf) • Multifunctional microplate reader (Envision Reader) • ECHO Liquid-handling workstation (Labcyte-ECHO555)
# The cells were inoculated in a 384-well plate with a density of 1000 cells per well and 25 μL per well. The edge wells were not inoculated with cells, and was supplemented with 25 μL of phosphate buffer.
# The compound was added to the plate with 9 μL per well.
# (2) The compound was diluted with ECHO liquid-handling workstation, and each well of the cell plate was added with 125 nL of compound. Each well of the cell wells of columns 2 and 23 was added with 125 nL of DMSO, and each well of the Media wells of columns 1 and 24 was added with 125 nL of DMSO.
# (3) Each well of the cell plate was supplemented with 25 μL of culture medium, and the final volume in each well of the cell plate was 50 μL. The concentration of the compound was 10 μM, which was subjected to 3 fold dilution to obtain 10 concentrations. Each concentration was duplicated in left and right wells, and the final DMSO concentration was 0.25%.
# 2.3 After adding the compound, it was centrifuged at 1000 rpm for 1 min. The cell plate was placed in a 37° C., 5% CO2 incubator for 3 days.
# The cell plate was taken from the incubator and equilibrated at room temperature for 30 min. 25 μL of Cell-Titer-Glo reagent was added to each well, shaken for 1 min to make it thoroughly mixed, and centrifuged at 1000 rpm for 1 min. After 10 min, the plate was read on PerkinElmer Envision, and the […] reading time was set to 0.2 seconds.
# [2] = test system: human gastric cancer NCI-N87 cell subcutaneous xenograft tumor; test: In vivo efficacy, NCI-N87 subcutaneous xenograft tumor model; parameters: species or system BALB/c nude mice; details: 100 mg/kg
# Method: Experiment object: to study the efficacy of the tested compound on human gastric cancer NCI-N87 cell subcutaneous xenograft tumor in the BALB/c nude mouse model.
# Experimental animals: female BALB/c nude mice, 6 to 8 weeks old, weight: 18 to 22 grams; Supplier: Shanghai Xipuer-Bikai Laboratory Animal Co., Ltd.
# Human gastric cancer NCI-N87 cells were cultured in a monolayer in vitro, and the culture conditions were: RPMI-1640 medium with 10% fetal bovine serum, 100 U/mL penicillin, 100 μg/mL streptomycin and 2 mM glutamine, and 37° C., 5% CO2. Conventional digestion treatment with pancreatin-EDTA for passage was carried out twice a week. When the cell saturation was 80% to 90%, the cells were collected, counted and inoculated.
# 0.2 mL of (10×10^6) NCI-N87 cells were subcutaneously inoculated into the right back of each nude mouse (PBS:Matrigel=1:1). The grouping and administration were started when the average tumor volume reached 130 mm^3.
# The tested compound was prepared as a 10 mg/mL solution, and the solvent was 10% NMP+10% ethylene glycol stearate+80% water.
# The experimental index was to investigate whether the tumor growth was inhibited, delayed or cured. Tumor diameter was measured twice a week with a vernier caliper. the calculation formula of tumor volume: V=0.5a×b^2, wherein a and b represented the long and short diameters of the tumor, respectively.
# The anti-tumor efficacy of the compound was evaluated by TGI (%) or relative tumor proliferation rate T/C (%). TGI (%) reflected the tumor growth inhibition rate.
# relative tumor growth rate T/C (%): calculation formula was as follows: T/C %=TRTV/CRTV (TRTV: RTV of the treatment group; CRTV: RTV of the solvent control group). The relative tumor volume (RTV) was calculated according to the results of the tumor measurement. The calculation equation was RTV=Vt/V0, where V0 was the average tumor volume measured at beginning of the grouping and administration (i.e., d0), and Vt was the average tumor volume at the time of a certain measurement. TRTV and CRTV were obtained from the data on the same day.
# Statistical analysis included mean value and standard error (SEM) of the tumor volume of each group at each time point. […] The comparison between two groups was analyzed by T-test, and the comparison between three or more groups was analyzed by one-way ANOVA.
smiles,measurement,setting,value
Cc1cc(Nc2ncnn3ccc(CN4CCC(N)CC4)c23)ccc1Oc1ccn2ncnc2c1 [Example 4],pIC50,[1],7.64
same,body weight of the mice in the treatment group,[2],decreased slightly
same,T/C,[2]; day 21,2.92%
same,TGI,[2]; day 21,112.13%
same,Tumor volume (Day 21),"[2]; day 21, mean ± SEM",29 mm^3 and 29 ± 7 mm^3
